In patent publication US20250092017A1, “2-PIPERIDYL OR 2-PYRAZOLYL SUBSTITUTED PYRIMIDINE COMPOUND SERVING AS EGFR INHIBITOR” (SUZHOU PUHE BIOPHARMA CO., LTD., priority 2022, published 2025):

Tests used:
[1] = molecular target: EGFR (L858R/C797S) (Homo sapiens, UniProt P00533, C797S/L858R); experiment: MSA (Mobility Shift Assay) kinase activity, EGFR-L858R-C797S; type: biochemical
Experimental: (§1) The MSA (Mobility Shift Assay) method was used to detect the effects of small molecule inhibitors on the kinase activity of EGFR wild type and its mutants (EGFR^wt, EGFR-L858R, EGFR-L858R-T790M-C797S, EGFR-L858R-C797S).
(§2) 10 μL of kinase solution at 2.5 times the final concentration was added to the compound wells and positive control Max wells; 10 μL of 1x kinase buffer was added to the negative control Min wells. The mixture was centrifuged at 1000 rpm for 30 seconds, and the reaction plate was shaken to mix the solution well and then incubated at room temperature for 10 minutes. A mixed solution of ATP and kinase substrate at 5/3 times the final concentration was prepared in 1x kinase buffer. 15 μL of a mixed solution of ATP and substrate at 5/3 times the final concentration was added to initiate the reaction. The 384-well plate was centrifuged at 1000 rpm for 30 seconds, and shaken to mix the solution well and then incubated at room temperature for the corresponding time. 30 μL of stop detection solution was added to stop the kinase reaction, and the mixture was centrifuged at 1000 rpm for 30 seconds, and then to mixed well by shaking. The conversion rate was read using Caliper EZ Reader.
(§3) wherein: Conversion %_sample is the conversion rate reading of the sample; Conversion %_min is the mean of the negative control wells, representing the conversion rate reading of the wells without enzyme activity; Conversion %_max is the mean of the positive control wells, representing the conversion rate reading of the wells without compound inhibition.
(§4) The log (inhibitor) vs. response —Variable slope of the analysis software GraphPad Prism 5 was used to fit the dose-effect curve, where the log value of the concentration was used as the X-axis and the percentage inhibition rate was used as the Y-axis, to obtain the IC50 value of each compound on the enzyme activity.
(§5) The calculation formula is Y=Bottom+(Top-Bottom)/(1+10^((Log IC50−X)*Hill Slope))

[2] = molecular target: EGFR (L858R) (Homo sapiens, UniProt P00533, L858R); experiment: MSA (Mobility Shift Assay) kinase activity, EGFR-L858R; type: biochemical
Experimental: as §1, §2, §3, §4, §5

[3] = molecular target: EGFR (wild-type) (Homo sapiens, UniProt P00533); experiment: MSA (Mobility Shift Assay) kinase activity, EGFR wild type; type: biochemical; conditions: read-out: EGFR wt/ IC50/nM
Experimental: as §1, §2, §3, §4, §5

[4] = molecular target: EGFR (L858R/T790M/C797S) (Homo sapiens, UniProt P00533, C797S/L858R/T790M); experiment: MSA (Mobility Shift Assay) kinase activity, EGFR-L858R-T790M-C797S; type: biochemical
Experimental: as §1, §2, §3, §4, §5

[5] = molecular target: T1, Ba/F3-TEL-EGFR-L858R-C797S (Homo sapiens, UniProt P00533, C797S/L858R, cells depend on it); experiment: CellTiter-Glo proliferation, Ba/F3-TEL-EGFR-L858R-C797S; type: cell-based; conditions: 72 hours, read-out: Ba/F3-TEL-EGFR-L858R-C797S IC50/nM
T1 construct: fused on or other part: N-terminal TEL (ETV6) oligomerising part fused to the EGFR intracellular/kinase part; P41212 (Transcription factor ETV6)
Experimental: (§6) Promega CellTiter-Glo reagent was used to detect the effects of small molecule inhibitors on the proliferation of five Ba/F3 cell lines (Ba/F3-FL-EGFR, Ba/F3-FL-EGFR-L858R, Ba/F3-FL-EGFR-L858R-T790M-C797S, Ba/F3-TEL-EGFR-L858R-C797S and Ba/F3-FL-EGFR-del19-C797S).
(§7) The cell lines were cultured in an incubator at 37° C. and 5% CO2. Cells were passaged regularly and cells in the logarithmic phase were used for plating. 95 μL of cell suspension was added to each well of the cell plate, and culture medium without cells (containing 0.1% DMSO) was added to the Min control wells. Substance addition for compound detection cell plate: 5 μL of 20× compound working solution was added to the cell culture plate as shown in the table below. 50 μL of DMSO-cell culture medium mixture was added to the Max control, with the final DMSO concentration of 0.1%. 5 μL of DMSO-cell culture medium mixture was added to the Max control. The final DMSO concentration was 0.1%.
(§8) The compounds to be tested were added as per the table below
(§9) Cell viability was detected by CellTiter-Glo luminescence assay. Data analysis:
(§10) The cell proliferation inhibition rate (Inhibition Rate) data was processed using the following formula: […]
(§11) wherein: RLUDrug represents the relative luminescence unit of the cells with the addition of drug, RLUMin represents the luminescence unit of the culture medium, and RLUMax represents the relative luminescence unit of the cells with the addition of DMSO.
(§12) The inhibition rates corresponding to different concentrations of compounds were calculated in EXCEL, and then the inhibition rate curve was plotted using GraphPad Prism software and related parameters including the maximum and minimum inhibition rates of cells and IC50 values were calculated.

[6] = molecular target: T2, Ba/F3-FL-EGFR (Homo sapiens, UniProt P00533); experiment: CellTiter-Glo proliferation, Ba/F3-FL-EGFR; type: cell-based; conditions: 72 hours, read-out: Ba/F3-FL-EGFR IC50/nM
T2 construct: FL read as full length
Experimental: as §6, §7, §8, §9, §10, §11, §12

[7] = molecular target: Ba/F3-FL-EGFR-L858R (Homo sapiens, UniProt P00533, L858R, cells depend on it); experiment: CellTiter-Glo proliferation, Ba/F3-FL-EGFR-L858R; type: cell-based; conditions: 72 hours, read-out: Ba/F3-FL-EGFR-L858R IC50/nM
Experimental: as §6, §7, §8, §9, §10, §11, §12

[8] = molecular target: Ba/F3-FL-EGFR-L858R-T790M-C797S (Homo sapiens, UniProt P00533, T790M/C797S/L858R, cells depend on it); experiment: CellTiter-Glo proliferation, Ba/F3-FL-EGFR-L858R-T790M-C797S; type: cell-based; conditions: 72 hours, read-out: Ba/F3-FL-EGFR-L858R-T790M-C797S IC50/nM
Experimental: as §6, §7, §8, §9, §10, §11, §12

[9] = tested on: Ba/F3-FL-EGFR-del19-C797S; experiment: CellTiter-Glo proliferation, Ba/F3-FL-EGFR-del19-C797S; type: cell-based; conditions: 72 h, proliferation, 72 hours, CellTiter-Glo; read-out: Ba/F3-FL-EGFR-del19-C797S IC50/nM
Experimental: as §6, §7, §8, §9, §10, §11, §12

EGFR (L858R), sequence (P00533 25-1210 L858R): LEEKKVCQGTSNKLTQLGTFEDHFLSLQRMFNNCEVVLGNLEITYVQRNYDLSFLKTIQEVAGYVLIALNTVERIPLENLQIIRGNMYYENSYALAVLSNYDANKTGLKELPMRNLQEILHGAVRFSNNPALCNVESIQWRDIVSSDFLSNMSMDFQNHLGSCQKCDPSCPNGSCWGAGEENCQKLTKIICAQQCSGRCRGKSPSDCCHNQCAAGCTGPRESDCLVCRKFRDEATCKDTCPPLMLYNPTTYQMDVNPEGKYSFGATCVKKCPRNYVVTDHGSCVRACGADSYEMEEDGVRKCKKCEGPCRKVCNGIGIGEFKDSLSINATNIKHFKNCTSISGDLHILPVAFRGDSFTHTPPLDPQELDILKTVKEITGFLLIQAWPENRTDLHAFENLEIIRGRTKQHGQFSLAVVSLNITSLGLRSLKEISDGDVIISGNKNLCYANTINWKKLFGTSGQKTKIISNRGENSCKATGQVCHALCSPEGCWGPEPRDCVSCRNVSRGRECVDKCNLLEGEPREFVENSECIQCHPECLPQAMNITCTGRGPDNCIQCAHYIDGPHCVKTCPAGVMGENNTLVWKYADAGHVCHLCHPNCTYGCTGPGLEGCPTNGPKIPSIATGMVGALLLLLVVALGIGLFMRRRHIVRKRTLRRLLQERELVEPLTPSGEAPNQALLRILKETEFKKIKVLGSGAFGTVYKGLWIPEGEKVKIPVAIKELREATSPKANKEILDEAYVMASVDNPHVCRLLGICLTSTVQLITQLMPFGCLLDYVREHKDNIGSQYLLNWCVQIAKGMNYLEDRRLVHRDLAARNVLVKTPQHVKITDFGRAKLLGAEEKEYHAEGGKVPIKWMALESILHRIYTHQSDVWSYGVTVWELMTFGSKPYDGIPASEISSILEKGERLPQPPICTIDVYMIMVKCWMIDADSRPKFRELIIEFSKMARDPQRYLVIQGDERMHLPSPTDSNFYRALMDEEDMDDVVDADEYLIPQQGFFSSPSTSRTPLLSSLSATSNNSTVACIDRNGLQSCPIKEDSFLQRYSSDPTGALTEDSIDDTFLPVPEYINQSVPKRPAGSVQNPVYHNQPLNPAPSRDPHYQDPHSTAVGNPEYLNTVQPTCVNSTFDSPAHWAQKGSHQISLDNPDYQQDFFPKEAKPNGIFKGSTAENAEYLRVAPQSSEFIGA
EGFR (L858R/T790M/C797S), sequence (P00533 25-1210 T790M/C797S/L858R): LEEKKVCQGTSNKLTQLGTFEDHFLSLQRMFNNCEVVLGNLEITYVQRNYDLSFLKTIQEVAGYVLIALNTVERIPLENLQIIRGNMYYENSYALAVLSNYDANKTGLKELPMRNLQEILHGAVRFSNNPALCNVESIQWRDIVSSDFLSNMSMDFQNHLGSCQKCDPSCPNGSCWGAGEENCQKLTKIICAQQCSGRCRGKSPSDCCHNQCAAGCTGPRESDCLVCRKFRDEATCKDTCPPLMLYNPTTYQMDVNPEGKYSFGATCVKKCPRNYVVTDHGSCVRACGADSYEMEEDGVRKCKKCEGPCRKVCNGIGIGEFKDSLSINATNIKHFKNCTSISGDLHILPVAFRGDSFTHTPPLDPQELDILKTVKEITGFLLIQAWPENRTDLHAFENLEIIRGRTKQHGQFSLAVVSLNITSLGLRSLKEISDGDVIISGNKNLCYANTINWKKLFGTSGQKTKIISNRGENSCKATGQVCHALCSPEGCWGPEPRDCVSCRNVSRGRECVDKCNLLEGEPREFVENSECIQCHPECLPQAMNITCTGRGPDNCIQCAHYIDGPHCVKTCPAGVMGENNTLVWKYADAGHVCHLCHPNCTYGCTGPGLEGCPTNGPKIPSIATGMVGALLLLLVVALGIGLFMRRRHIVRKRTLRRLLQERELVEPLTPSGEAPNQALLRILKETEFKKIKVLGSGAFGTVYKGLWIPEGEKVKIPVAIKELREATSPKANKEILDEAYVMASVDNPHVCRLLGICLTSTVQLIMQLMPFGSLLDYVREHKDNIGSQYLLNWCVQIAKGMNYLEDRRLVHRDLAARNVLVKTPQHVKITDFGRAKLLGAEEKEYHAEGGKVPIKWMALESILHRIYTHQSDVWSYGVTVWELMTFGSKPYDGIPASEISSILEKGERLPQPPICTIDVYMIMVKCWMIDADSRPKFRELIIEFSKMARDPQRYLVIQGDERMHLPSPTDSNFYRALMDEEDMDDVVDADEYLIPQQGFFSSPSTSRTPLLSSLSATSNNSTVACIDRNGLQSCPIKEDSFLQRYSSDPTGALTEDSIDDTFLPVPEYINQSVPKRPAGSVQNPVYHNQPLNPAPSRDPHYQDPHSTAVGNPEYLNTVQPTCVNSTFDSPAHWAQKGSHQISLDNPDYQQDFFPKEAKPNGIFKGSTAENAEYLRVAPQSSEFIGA
EGFR (L858R/C797S), sequence (P00533 25-1210 C797S/L858R): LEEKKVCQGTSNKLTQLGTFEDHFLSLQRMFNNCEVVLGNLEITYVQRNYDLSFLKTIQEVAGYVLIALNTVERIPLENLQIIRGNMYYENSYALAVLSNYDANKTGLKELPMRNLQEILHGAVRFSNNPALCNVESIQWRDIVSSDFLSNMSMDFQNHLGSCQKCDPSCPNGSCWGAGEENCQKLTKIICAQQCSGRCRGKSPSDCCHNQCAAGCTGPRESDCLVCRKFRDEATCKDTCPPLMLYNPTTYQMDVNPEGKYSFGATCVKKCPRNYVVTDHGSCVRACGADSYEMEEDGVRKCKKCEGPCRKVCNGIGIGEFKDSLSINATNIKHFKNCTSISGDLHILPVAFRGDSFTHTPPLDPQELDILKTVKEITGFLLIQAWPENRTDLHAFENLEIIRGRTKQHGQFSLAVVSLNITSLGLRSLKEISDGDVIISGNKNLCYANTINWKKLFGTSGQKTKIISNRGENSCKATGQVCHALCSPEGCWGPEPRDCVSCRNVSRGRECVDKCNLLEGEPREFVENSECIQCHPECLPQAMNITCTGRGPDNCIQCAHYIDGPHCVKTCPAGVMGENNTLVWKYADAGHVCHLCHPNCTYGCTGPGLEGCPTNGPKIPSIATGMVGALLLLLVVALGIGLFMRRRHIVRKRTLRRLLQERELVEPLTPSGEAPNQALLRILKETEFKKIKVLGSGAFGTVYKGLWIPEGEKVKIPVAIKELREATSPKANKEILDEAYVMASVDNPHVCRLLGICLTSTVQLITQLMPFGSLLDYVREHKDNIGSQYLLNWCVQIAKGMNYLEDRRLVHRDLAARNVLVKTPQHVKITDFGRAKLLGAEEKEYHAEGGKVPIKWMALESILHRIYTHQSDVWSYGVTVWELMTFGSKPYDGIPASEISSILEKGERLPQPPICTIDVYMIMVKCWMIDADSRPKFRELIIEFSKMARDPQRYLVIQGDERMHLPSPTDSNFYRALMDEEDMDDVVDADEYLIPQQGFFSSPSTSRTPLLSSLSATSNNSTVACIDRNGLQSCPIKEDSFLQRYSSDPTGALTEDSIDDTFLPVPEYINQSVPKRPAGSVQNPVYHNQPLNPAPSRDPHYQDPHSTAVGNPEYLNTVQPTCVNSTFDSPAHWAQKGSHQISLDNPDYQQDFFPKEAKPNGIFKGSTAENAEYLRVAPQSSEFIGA
EGFR (wild-type), sequence (P00533 25-1210): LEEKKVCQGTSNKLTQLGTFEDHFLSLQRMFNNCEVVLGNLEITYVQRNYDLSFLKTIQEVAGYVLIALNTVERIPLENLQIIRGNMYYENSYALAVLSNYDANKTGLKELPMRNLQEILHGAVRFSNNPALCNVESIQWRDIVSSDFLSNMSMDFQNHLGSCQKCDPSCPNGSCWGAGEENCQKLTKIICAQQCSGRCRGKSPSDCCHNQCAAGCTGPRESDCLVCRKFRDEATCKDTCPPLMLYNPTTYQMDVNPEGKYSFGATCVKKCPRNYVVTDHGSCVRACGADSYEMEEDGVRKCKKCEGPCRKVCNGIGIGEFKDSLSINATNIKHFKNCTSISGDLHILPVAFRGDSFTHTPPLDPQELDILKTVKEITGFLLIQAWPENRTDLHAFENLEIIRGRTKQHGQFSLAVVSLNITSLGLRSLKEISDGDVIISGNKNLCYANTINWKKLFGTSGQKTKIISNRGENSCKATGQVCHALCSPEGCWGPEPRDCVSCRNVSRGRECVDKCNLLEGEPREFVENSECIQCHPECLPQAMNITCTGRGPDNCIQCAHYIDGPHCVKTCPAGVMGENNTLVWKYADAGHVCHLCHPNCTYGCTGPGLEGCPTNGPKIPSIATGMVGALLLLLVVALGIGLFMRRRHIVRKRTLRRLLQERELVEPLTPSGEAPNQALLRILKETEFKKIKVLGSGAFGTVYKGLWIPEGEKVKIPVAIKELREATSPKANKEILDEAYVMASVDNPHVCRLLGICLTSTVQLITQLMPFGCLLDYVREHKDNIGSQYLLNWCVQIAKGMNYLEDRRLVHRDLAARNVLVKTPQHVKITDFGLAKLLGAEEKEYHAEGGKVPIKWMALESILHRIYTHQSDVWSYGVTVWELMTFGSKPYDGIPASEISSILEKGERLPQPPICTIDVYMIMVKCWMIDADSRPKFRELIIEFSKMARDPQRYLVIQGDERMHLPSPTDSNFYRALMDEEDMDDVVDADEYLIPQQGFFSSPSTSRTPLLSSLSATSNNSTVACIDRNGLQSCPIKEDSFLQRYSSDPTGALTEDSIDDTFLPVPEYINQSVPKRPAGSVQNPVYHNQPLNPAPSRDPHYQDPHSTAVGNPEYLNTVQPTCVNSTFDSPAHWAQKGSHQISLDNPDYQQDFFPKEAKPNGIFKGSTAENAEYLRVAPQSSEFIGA

SMILES	IC50 [1]	IC50 [2]	IC50 [3]	IC50 [4]	GI50 [5]	GI50 [6]	GI50 [7]	GI50 [8]	IC50 [9]
CC(C)c1ccc(N2CC(C[S+](C)[O-])C2)c2cnc(Nc3ccnc(N4CCC(O)C(F)C4)n3)cc12 (stereo not drawn) [Compound P17]	> 100 nM	73.4 nM	> 100 nM	1.6 nM					
CC(C)c1ccc(N2CC(NS(=O)(=O)c3cccnc3)C2)c2cnc(Nc3ccnc(N4CCC(O)C(F)C4)n3)cc12 (stereo not drawn) [Compound P28]	27 nM	13 nM	64 nM	0.34 nM					
CNC(=O)CC1CN(c2ccc(C(C)C)c3cc(Nc4ccnc(N5CCC(O)C(F)C5)n4)ncc23)C1 (stereo not drawn) [Compound P20]	43.1 nM	20.5 nM	90.9 nM	0.42 nM					
CC(C)c1ccc(N2CC(NS(=O)(=O)C3CC3)C2)c2cnc(Nc3ccnc(N4CCC(O)C(F)C4)n3)cc12 (stereo not drawn) [Compound P23]	8.2 nM	7.8 nM	33.8 nM	0.11 nM					
CC(C)c1ccc(N2CC(CS(C)(=O)=O)C2(C)C)c2cnc(Nc3ccnc(N4CCC(O)C(F)C4)n3)cc12 (stereo not drawn) [Compound P8]	83.3 nM	67.8 nM	> 100 nM	0.97 nM					
CC(C)c1ccc(N2C[C@@H](NS(C)(=O)=O)[C@@H]2C)c2cnc(Nc3ccnc(N4CCC(O)C(F)C4)n3)cc12 (stereo partly drawn) [Compound P26]	> 100 nM	> 100 nM	> 100 nM	30.9 nM					
CC(C)n1c(=O)cc(N2CC(CS(C)(=O)=O)C2)c2cnc(Nc3ccnc(N4CCC(O)CC4)n3)cc21 [Compound P13]	34.5 nM	31.2 nM	> 100 nM	1 nM					
CC(C)c1ccc(N2CC(c3cccnc3)C2)c2cnc(Nc3ccnc(N4CCC(O)C(F)C4)n3)cc12 (stereo not drawn) [Compound P12]	> 100 nM	> 100 nM	> 100 nM	1.9 nM					
COC1CCN(c2nccc(Nc3cc4c(cn3)c(N3CC(CS(C)(=O)=O)C3)cc(=O)n4C(C)C)n2)CC1F (stereo not drawn) [Compound P24]	10.4 nM		41.2 nM	0.13 nM	63 nM	3440 nM	128 nM	57 nM	283 nM

More lines, now with the values ahead:

IC50 [1]	IC50 [2]	IC50 [3]	IC50 [4]	GI50 [5]	GI50 [6]	GI50 [7]	GI50 [8]	IC50 [9]	SMILES
> 100 nM	> 100 nM	> 100 nM	4.8 nM						CC(C)c1ccc(N2CC3(C2)CN(S(C)(=O)=O)C3)c2cnc(Nc3ccnc(N4CCC(O)C(F)C4)n3)cc12 (stereo not drawn) [Compound P11]
10.6 nM	5.8 nM	17.9 nM	0.71 nM	43 nM	889 nM	55 nM	248 nM		CC(C)c1ccc(N2CC3(CC(S(C)(=O)=O)C3)C2)c2cnc(Nc3ccnc(-c4cnn(S(=O)(=O)C5CC5)c4)n3)cc12 [Compound P3]
1.9 nM	4.6 nM	10.2 nM	0.43 nM						CC(C)n1c(=O)cc(N2CC(CS(C)(=O)=O)C2)c2cnc(Nc3ccnc(-c4cnn(S(=O)(=O)C5CC5)c4)n3)cc21 [Compound H5]
> 100 nM	43 nM	> 100 nM	6.7 nM						CC(C)c1ccc(N2CC3(CC(S(C)(=O)=O)C3)C2)c2cnc(Nc3ccnc(N4CCC(O)C(F)C4)n3)cc12 (stereo not drawn) [Compound P2]
